IC50 data for 16 molecules are collected here from patent US10189840B2, “Substituted tricyclic heterocyclic compounds” (BRISTOL-MYERS SQUIBB COMPANY, priority 2015, dated 2019).

The target of this assay is TNFα (Homo sapiens (Human), UniProt P01375). In words: TNF induced HEK-Blue assay. The class given is cell-based. The following applies: TNFα 0.5 ng/ml; HEK-Blue-CD40L cells, NF-κB-driven secreted alkaline phosphatase reporter; 18 h. The method, boiled down: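 Compounds at 0.004–25 μM final were preincubated 30 min with TNFα (0.5 ng/ml final) in DMEM/10% FBS. HEK-Blue-CD40L cells carrying an NF-κB-driven SEAP reporter (20,000/well) were then added for 18 h at 37 °C, 5% CO2, and SEAP was read by QUANTI-Blue at 620 nm. IC50 came from a 4-parameter logistic fit, normalized to unstimulated and stimulated DMSO controls.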
TNFα, sequence (P01375 77-233): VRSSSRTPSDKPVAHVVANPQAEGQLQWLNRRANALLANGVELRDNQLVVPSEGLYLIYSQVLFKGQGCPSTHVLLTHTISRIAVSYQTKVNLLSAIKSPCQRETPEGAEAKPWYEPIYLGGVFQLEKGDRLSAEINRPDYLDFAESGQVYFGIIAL
Consider `FC(F)Oc1ccccc1C1CC(F)c2nc3ccc(-c4cnc(N5CCOCC5)nc4)nc3n21` (stereo not shown) [Example 17 (DM), 4-(5-(8-(2-(difluoromethoxy)phenyl)-6-fluoro-7,8-dihydro-6H-pyrrolo[2′,1′:2,3]imidazo[4,5-b]pyridin-2-yl)pyrimidin-2-yl)morpholine], for which the IC50 is below 1 µM.

`COc1ccc(-c2ccc3nc4n(c3n2)C(c2ccccc2OC(F)F)CC4F)cn1` (stereo not shown) [Example 18 (DM), 8-(2-(difluoromethoxy)phenyl)-6-fluoro-2-(6-methoxypyridin-3-yl)-7,8-dihydro-6H-pyrrolo[2′,1′:2,3]imidazo[4,5-b]pyridine] showed an IC50 of 1 to 10 µM.

`Cn1cc(-c2ccc3nc4n(c3n2)C(c2ccccc2OC(F)F)CC4F)cn1` (stereo not shown) [Example 19 (e3), 8-(2-(difluoromethoxy)phenyl)-6-fluoro-2-(1-methyl-1H-pyrazol-4-yl)-7,8-dihydro-6H-pyrrolo[2′,1′:2,3]imidazo[4,5-b]pyridine] registered a 50% inhibitory concentration (IC50) of 1 to 10 µM.

As to `Cc1ccc(C)c(C2CC(F)c3nc4ccc(-c5cnc(C(C)(C)O)nc5)nc4n32)c1` (stereo not shown) [Example 20 (DM), 2-(5-(8-(2,5-dimethylphenyl)-6-fluoro-7,8-dihydro-6H-pyrrolo[2′,1′:2,3]imidazo[4,5-b]pyridin-2-yl)pyrimidin-2-yl)propan-2-ol], the IC50 is below 1 µM.

Regarding `CC(C)(O)c1ccc(-c2ccc3nc4n(c3n2)C(c2ccccc2C2CC2)CC4F)cc1` (stereo not shown) [Example 21 (e3), 2-(4-(8-(2-cyclopropylphenyl)-6-fluoro-7,8-dihydro-6H-pyrrolo[2′,1′:2,3]imidazo[4,5-b]pyridin-2-yl)phenyl)propan-2-ol], the IC50 was 1 to 10 µM.

Take `CC(C)(O)c1ccc(-c2ccc3nc4n(c3n2)C(c2ccccc2OC(F)(F)F)CC4F)cc1` (stereo not shown) [Example 22 (e3), 2-(4-(6-fluoro-8-(2-(trifluoromethoxy)phenyl)-7,8-dihydro-6H-pyrrolo[2′,1′:2,3]imidazo[4,5-b]pyridin-2-yl)phenyl)propan-2-ol]: the half-inhibitory concentration (IC50) is 1 to 10 µM.

As to `CC(C)(O)c1ccc(-c2ccc3nc4n(c3n2)C(c2c(F)cccc2C(F)(F)F)CC4F)cc1` (stereo not shown) [Example 23 (e1), 2-(4-(6-fluoro-8-(2-fluoro-6-(trifluoromethyl)phenyl)-7,8-dihydro-6H-pyrrolo[2′,1′:2,3]imidazo[4,5-b]pyridin-2-yl)phenyl)propan-2-ol], the half-maximal inhibitory concentration (IC50) was below 1 µM.

As to `CC(C)(O)c1ccc(-c2ccc3nc4n(c3n2)C(c2cc(F)ccc2C(F)(F)F)CC4F)cc1` (stereo not shown) [Example 24 (DM), 2-(4-(6-fluoro-8-(5-fluoro-2-(trifluoromethyl)phenyl)-7,8-dihydro-6H-yrrolo[2′,1′:2,3]imidazo[4,5-b]pyridin-2-yl)phenyl)propan-2-ol], the IC50 is below 1 µM.

Turning to `CC(C)(O)c1ccc(-c2ccc3nc4n(c3n2)C(c2cc(F)ccc2C(F)(F)F)CC4F)cc1` (stereo not shown) [Example 24 (e3), 2-(4-(6-fluoro-8-(5-fluoro-2-(trifluoromethyl)phenyl)-7,8-dihydro-6H-yrrolo[2′,1′:2,3]imidazo[4,5-b]pyridin-2-yl)phenyl)propan-2-ol], the half-inhibitory concentration (IC50) is 1 to 10 µM.

With `CC(C)(O)c1ccc(-c2ccc3nc4n(c3n2)C(c2cc(F)ccc2C(F)(F)F)CC4F)cc1` (stereo not shown) [Example 24 (e4), 2-(4-(6-fluoro-8-(5-fluoro-2-(trifluoromethyl)phenyl)-7,8-dihydro-6H-yrrolo[2′,1′:2,3]imidazo[4,5-b]pyridin-2-yl)phenyl)propan-2-ol], the IC50 was below 1 µM.

Molecule `COc1ccccc1C1CCc2nc3ccc(-c4ccc(C(C)(C)O)cc4)nc3n21` (stereo not shown) [Example 31 (e1), 2-(4-(8-(2-methoxyphenyl)-7,8-dihydro-6H-pyrrolo[2′,1′:2,3]imidazo[4,5-b]pyridin-2-yl)phenyl)propan-2-ol] displayed a half-inhibitory concentration (IC50) below 1 µM.

In the case of `Cc1ccc(C)c([C@H]2CCc3nc4ccc(-c5cnc(C(C)(C)O)nc5)nc4n32)c1` [Example 36, (R)-2-(5-(8-(2,5-Dimethylphenyl)-7,8-dihydro-6H-pyrrolo[2′,1′:2,3]imidazo[4,5-b]pyridin-2-yl)pyrimidin-2-yl)propan-2-ol], the IC50 is below 1 µM.

On to `Cc1ccc(C)c([C@H]2CCc3nc4ccc(-c5ccc(C(C)(C)O)cc5)nc4n32)c1` [Example 37, (R)-2-(4-(8-(2,5-dimethylphenyl)-7,8-dihydro-6H-pyrrolo[2′,1′:2,3]imidazo[4,5-b]pyridin-2-yl)phenyl)propan-2-ol], for which the IC50 is below 1 µM.

In turn, `Cc1ccc(C)c([C@H]2CCc3nc4ccc(-c5ccc(N6CCN(C)CC6)cc5)nc4n32)c1` [Example 38, (R)-8-(2,5-dimethylphenyl)-2-(4-(4-methylpiperazin-1-yl)phenyl)-7,8-dihydro-6H-pyrrolo[2′,1′:2,3]imidazo[4,5-b]pyridine] returned an IC50 of 1 to 10 µM.

The molecule `COc1ccc(-c2ccc3nc4n(c3n2)[C@@H](c2cc(C)ccc2C)CC4)cn1` [Example 39, (R)-8-(2,5-dimethylphenyl)-2-(6-methoxypyridin-3-yl)-7,8-dihydro-6H-pyrrolo[2′,1′:2,3]imidazo[4,5-b]pyridine] came in with an IC50 of 1 to 10 µM.

For `Cc1ccc(C)c([C@H]2CCc3nc4ccc(-c5cnn(C)c5)nc4n32)c1` [Example 40, (R)-8-(2,5-dimethylphenyl)-2-(1-methyl-1H-pyrazol-4-yl)-7,8-dihydro-6H-pyrrolo[2′,1′:2,3]imidazo[4,5-b]pyridine], the IC50 lay within 1 to 10 µM.
